What all share (type): cell-based
For one assay, the target named is T1, KV2.1 (Homo sapiens, UniProt Q14721).
T1 sequence (Q14721 1-858): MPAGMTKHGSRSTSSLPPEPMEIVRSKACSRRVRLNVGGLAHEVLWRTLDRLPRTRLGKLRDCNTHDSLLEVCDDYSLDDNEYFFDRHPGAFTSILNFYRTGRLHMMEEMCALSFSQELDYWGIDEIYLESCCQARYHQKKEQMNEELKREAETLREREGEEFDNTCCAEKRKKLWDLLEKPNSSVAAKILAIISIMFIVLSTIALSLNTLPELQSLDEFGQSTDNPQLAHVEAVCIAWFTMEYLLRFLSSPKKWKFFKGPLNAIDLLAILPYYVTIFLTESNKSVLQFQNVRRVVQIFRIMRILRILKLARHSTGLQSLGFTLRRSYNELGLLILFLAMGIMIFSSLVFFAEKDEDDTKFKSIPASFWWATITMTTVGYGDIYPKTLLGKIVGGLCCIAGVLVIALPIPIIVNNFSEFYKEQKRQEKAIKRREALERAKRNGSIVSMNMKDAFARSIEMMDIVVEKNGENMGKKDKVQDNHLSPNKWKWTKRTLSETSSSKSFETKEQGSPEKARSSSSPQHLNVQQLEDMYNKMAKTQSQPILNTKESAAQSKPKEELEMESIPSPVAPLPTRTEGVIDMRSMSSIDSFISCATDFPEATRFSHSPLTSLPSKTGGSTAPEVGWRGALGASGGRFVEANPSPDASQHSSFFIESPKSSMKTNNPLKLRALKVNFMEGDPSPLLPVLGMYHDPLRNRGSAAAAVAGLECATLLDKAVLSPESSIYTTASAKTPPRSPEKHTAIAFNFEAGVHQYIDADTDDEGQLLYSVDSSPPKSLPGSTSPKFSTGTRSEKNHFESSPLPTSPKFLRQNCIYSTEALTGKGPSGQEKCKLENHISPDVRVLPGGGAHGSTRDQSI
As to the kind of experiment: Selectivity, HiClamp Xenopus laevis heterologous expression system, KV2.1. The method, then:
(§1) Ion channels (Kv1.x, Kv2.1, Kv4.2, Kv10.1) were expressed in Xenopus laevis oocytes by linearization of the plasmids and subsequent in vitro transcription using a commercial T7 or SP6 mMESSAGE mMACHINE transcription kit (Ambion, Carlsbad, California, USA). Defolliculated Xenopus oocytes were then injected with 20–50 nL of the cRNA at a concentration of 1 ng/nL using a micro-injector (Drummond Scientific1, Broomall, PA, USA). The oocytes were incubated in a solution containing (in mM): NaCl, 96; KCl, 2; CaCl2, 1.8; MgCl2, 2 and HEPES, 5 (pH 7.5), supplemented with 50 mg/L gentamycin sulfate and 90 mg/L theophylline. After ex vivo translation, the ion channels were correctly inserted in the cell membrane of the oocytes.
(§2) Two-electrode voltage-clamp recordings were performed at room temperature (18–22 °C) using a Geneclamp 500 amplifier (Molecular Devices, San Jose, CA, USA) and pClamp data acquisition (Axon Instruments, Union City, CA, USA) and using an integrated digital TEVC amplifier controlled by HiClamp, an automated Voltage-Clamp Screening System (Multi Channel Systems MCS GmbH, Reutlingen, Germany). Whole-cell currents from oocytes were recorded 1–4 days after injection. The bath solution composition was ND96 (in mM): NaCl, 96; KCl, 2; CaCl2, 1.8; MgCl2, 2 and HEPES, 5 (pH 7.5). Voltage and current electrodes were filled with a 3 M solution of KCl in H2O. […]
(§3) For the electrophysiological analysis of the compounds, a number of protocols were applied from a holding potential of −90 mV. […] The concentration dependency of all compounds was assessed by measuring the current inhibition in the presence of increasing compound concentrations. […]
(§4) All electrophysiological data (Figure S1) are presented as means ± S.E.M of n ≥ three independent experiments unless otherwise indicated. All data were analyzed using pClamp Clampfit 10.4 (Molecular Devices, Downingtown, PA, USA), OriginPro 9 (Originlab, Northampton, MA, USA), GraphPad Prism 8 software (GraphPad Software, Inc., San Diego, CA, USA) and DataMining (Multi Channel Systems MCS GmbH, Reutlingen, Germany). […]

Another assay has as its target KV4.2 (Homo sapiens, UniProt Q9NZV8). The assay is described as follows: Selectivity, HiClamp Xenopus laevis heterologous expression system, KV4.2. The following applies: oocytes, NA = no significant inhibition, no IC50 determined. The method, then:
as §1, with “After ex vivo translation, the ion channels were correctly inserted in the cell membrane of the oocytes.” left out
(§5) Two-electrode voltage-clamp recordings were performed at room temperature (18–22 °C) using a Geneclamp 500 amplifier (Molecular Devices, San Jose, CA, USA) and pClamp data acquisition (Axon Instruments, Union City, CA, USA) and using an integrated digital TEVC amplifier controlled by HiClamp, an automated Voltage-Clamp Screening System (Multi Channel Systems MCS GmbH, Reutlingen, Germany). Whole-cell currents from oocytes were recorded 1–4 days after injection. […]
as §3

Another assay addresses KV1.4 (Homo sapiens, UniProt P22459). As to the kind of experiment: Selectivity, HiClamp Xenopus laevis heterologous expression system, KV1.4. How it is done: as §1, §2, §3, §4
The next assay addresses KV10.1 (Homo sapiens, UniProt O95259). As to the kind of experiment: Selectivity, HiClamp Xenopus laevis heterologous expression system, KV10.1. The following applies: at a concentration of the compound's IC50 value for KV1.3. How it is done:
as §1, with “After ex vivo translation, the ion channels were correctly inserted in the cell membrane of the oocytes.” left out
as §5, §3

The mark [1] stands for this setting: HiClamp, oocytes, NA = no significant inhibition, no IC50 determined.
Where [2] appears, read: at a concentration of the compound's IC50 value for KV1.3.

Chain of KV1.4 (P22459 whole entry): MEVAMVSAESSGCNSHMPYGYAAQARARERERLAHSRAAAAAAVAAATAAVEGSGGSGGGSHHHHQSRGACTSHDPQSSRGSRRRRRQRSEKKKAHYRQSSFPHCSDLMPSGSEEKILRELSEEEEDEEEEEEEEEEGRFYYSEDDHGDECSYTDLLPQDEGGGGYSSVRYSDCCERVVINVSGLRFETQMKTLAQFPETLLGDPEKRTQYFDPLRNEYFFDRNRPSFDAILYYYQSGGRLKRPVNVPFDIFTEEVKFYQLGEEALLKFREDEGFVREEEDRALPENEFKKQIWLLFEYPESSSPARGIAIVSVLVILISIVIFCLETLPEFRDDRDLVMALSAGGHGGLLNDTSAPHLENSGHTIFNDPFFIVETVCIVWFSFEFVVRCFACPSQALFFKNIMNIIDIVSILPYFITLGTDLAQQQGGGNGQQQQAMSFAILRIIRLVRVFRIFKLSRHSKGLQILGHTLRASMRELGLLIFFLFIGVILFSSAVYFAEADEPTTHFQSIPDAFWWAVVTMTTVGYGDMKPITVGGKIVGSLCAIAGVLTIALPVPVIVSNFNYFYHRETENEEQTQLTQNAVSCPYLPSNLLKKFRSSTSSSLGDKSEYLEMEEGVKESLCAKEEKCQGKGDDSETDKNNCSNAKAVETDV
Chain of KV4.2 (Q9NZV8 whole entry): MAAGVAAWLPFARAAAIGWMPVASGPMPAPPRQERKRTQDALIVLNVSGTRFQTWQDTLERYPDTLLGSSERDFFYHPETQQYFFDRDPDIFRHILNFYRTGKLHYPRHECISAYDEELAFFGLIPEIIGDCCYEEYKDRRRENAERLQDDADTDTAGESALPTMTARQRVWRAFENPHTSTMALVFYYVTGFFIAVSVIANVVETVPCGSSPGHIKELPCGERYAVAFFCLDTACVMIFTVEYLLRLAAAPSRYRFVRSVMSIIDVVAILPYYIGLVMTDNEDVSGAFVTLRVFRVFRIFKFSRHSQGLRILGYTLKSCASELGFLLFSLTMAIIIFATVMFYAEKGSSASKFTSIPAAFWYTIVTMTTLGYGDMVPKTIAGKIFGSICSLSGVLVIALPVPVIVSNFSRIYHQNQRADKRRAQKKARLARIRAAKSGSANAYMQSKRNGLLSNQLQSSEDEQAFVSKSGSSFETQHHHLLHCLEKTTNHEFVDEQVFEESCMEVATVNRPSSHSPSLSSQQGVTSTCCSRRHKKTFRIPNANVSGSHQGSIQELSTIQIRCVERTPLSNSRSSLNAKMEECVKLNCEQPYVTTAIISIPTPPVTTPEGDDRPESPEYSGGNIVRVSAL
Chain of KV10.1 (O95259 whole entry): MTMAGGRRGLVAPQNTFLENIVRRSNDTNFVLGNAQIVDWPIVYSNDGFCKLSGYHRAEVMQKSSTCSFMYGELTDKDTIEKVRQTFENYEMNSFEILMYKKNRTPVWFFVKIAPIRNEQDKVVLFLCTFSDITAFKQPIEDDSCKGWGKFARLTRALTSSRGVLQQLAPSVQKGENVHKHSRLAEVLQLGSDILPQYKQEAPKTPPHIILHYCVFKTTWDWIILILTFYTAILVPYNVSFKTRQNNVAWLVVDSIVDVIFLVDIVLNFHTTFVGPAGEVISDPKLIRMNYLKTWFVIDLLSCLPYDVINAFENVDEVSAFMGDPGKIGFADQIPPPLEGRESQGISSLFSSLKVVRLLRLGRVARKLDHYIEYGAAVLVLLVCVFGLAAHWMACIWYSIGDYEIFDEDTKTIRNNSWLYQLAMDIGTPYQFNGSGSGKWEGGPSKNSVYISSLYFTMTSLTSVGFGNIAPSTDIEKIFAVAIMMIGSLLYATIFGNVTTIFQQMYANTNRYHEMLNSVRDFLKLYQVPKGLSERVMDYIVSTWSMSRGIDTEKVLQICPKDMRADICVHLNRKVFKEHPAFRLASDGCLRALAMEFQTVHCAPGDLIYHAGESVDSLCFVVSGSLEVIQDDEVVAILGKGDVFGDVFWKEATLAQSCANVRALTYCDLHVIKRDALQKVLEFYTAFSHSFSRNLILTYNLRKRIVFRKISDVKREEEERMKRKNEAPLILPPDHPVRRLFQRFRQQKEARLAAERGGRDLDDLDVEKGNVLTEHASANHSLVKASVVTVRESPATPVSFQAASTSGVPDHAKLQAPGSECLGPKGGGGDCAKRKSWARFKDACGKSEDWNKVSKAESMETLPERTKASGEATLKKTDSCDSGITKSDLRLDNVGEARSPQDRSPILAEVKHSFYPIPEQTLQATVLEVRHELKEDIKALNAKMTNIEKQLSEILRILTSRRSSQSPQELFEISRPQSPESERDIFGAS

In the case of `COc1ccccc1C(=O)NCC1(c2cccs2)CCOC1` (stereo not drawn) [Compound 14], the IC50 at KV2.1 (setting [1]) is 6.45 ± 0.42 µM; at KV4.2 it was 2.41 ± 0.88 µM.
Consider `COc1ccccc1C(=O)NCC1(c2ccsc2)CCOCC1` [Compound 44], for which the half-maximal inhibitory concentration (IC50) against KV1.4 (setting [1]) amounted to 8.48 ± 2.21 µM. On KV1.4 (setting [2]), the “inhibition of KV1.4” value is recorded as approximately 16%. For the same compound, the “Effect on KV2.1 channel” value at KV2.1 (setting [2]) was “no significant effects”. Besides, the “Effect on KV10.1 channel” value on KV10.1 was “no significant effects”.

Source of the values: article PMC9179341, “Design of New Potent and Selective Thiophene-Based KV1.3 Inhibitors and Their Potential for Anticancer Activity” (Cancers, 2022).
